Usually IC50 stands for the concentration needed to halve the response being measured.

The target in this assay is T1, C-terminal His6-tagged, recombinant, human JAK2, amino acids 808-end (Homo sapiens, UniProt O60674).
T1 construct: human JAK2, amino acids 808-end; His6 (C); purchased Upstate Biotechnology; host or cells: baculovirus in Sf21 cells
Briefly: JAK2 kinase activity assay (Alphascreen). It is filed as biochemical. Particulars: 150 pM JAK2 enzyme, 30 μM ATP, 80 nM Tyk2 peptide substrate, 60 minutes, room temperature; read-out: JAK inhibitory activity IC50. How it is done:
JAK2 kinase activity was determined by measuring the kinase's ability to phosphorylate synthetic tyrosine residues within a generic polypeptide substrate using an Amplified Luminescent Proximity Assay (Alphascreen) technology (PerkinElmer, 549 Albany Street, Boston, Mass.).
To measure JAK2 kinase activity, a commercially available purified enzyme may be used. The enzyme may be C-terminal His6-tagged, recombinant, human JAK2, amino acids 808-end, (Genbank Accession number NM 004972) expressed by baculovirus in Sf21 cells (Upstate Biotechnology MA). After incubation of the kinase with a biotinylated substrate and adenosine triphosphate (ATP) for 60 minutes at room temperature, the kinase reaction may be stopped by the addition of 30 mM ethylenediaminetetraacetic acid (EDTA). The reaction may be performed in 384 well microtitre plates and the reaction products may be detected with the addition of streptavidin coated Donor Beads and phosphotyrosine-specific antibodies coated Acceptor Beads using the EnVision Multilabel Plate Reader after an overnight incubation at room temperature.
On the technique in general: Bead proximity is the source of the signal in Alpha formats.

T1 sequence (O60674 808-1132 limits assumed): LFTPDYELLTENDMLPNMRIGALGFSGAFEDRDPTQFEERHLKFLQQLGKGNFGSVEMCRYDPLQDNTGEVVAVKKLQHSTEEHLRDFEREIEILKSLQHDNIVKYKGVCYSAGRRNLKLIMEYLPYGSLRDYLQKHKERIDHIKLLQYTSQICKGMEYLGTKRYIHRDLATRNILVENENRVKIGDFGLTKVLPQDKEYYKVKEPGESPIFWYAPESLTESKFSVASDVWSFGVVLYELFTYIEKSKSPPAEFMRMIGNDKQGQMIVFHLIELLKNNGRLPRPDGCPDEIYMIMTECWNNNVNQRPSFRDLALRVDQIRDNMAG

`Cc1cnc(Nc2nc(N[C@@H](C)c3ccc(F)cc3)ncc2Cl)s1` [Example 1, 5-Chloro-N^2-[(1S)-1-(4-fluorophenyl]ethyl)-N^4-(5-methyl-1,3-thiazol-2-yl)pyrimidine-2,4-diamine]: the IC50 came out at 6 nM.
For `COC(=O)c1cnc(Nc2nc(N[C@@H](C)c3ccc(F)cc3)ncc2Cl)s1` [Example 2, Methyl 2-[(5-chloro-2-{[(1S)-1-(4-fluorophenyl)ethyl]amino}pyrimidin-4-yl)amino]-1,3-thiazole-5-carboxylate], the IC50 was found to be 170 nM.
For the molecule `Cc1cnc(Nc2nc(N[C@@H](C)c3ccc(F)cn3)ncc2Cl)s1` [Example 3, 5-Chloro-N^2-[(1S)-1-(5-fluoropyridin-2-yl)ethyl]-N^4-(5-methyl-1,3-thiazol-2-yl)pyrimidine-2,4-diamine], the concentration for half-maximal inhibition (IC50) was 902 nM.
With `Cc1cnc(Nc2nc(N[C@@H](C)c3ncc(F)cn3)nc(N3CCOCC3)c2F)s1` [Example 4, 5-Fluoro-N^2-[(1S)-1-(5-fluoropyrimidin-2-yl)ethyl]-N^4-(5-methyl-1,3-thiazol-2-yl)-6-morpholin-4-ylpyrimidine-2,4-diamine] the figure was 3 nM; with `Cc1cnc(Nc2cc(N3CCN(C)CC3)nc(N[C@@H](C)c3ccc(F)cn3)n2)s1` [Example 5, N^2-[(S)-1-(5-Fluoro-pyridin-2-yl)-ethyl]-6-(4-methyl-piperazin-1-yl)-N^4-(5-methyl-thiazol-2-yl)-pyrimidine-2,4-diamine], 3 nM; with `C[C@H](Nc1nc(Nc2ncc(C#N)s2)cc(N2CCOCC2)n1)c1ccc(F)cn1` [Example 8, 2-[(2-{[(1S)-1-(5-Fluoropyridin-2-yl)ethyl]amino}-6-morpholin-4-ylpyrimidin-4-yl)amino]-1,3-thiazole-5-carbonitrile], 3 nM.
Next, `COc1cc(Nc2ncc(C)s2)nc(N[C@@H](C)c2ncc(F)cn2)n1` [Example 10, (S)—N^2-(1-(5-Fluoropyrimidin-2-yl)ethyl)-6-methoxy-N^4-(5-methylthiazol-2-yl)pyrimidine-2,4-diamine]: 3 nM.

(Values after patent publication US20100204231A1, “AMINO-THIAZOLYL-PYRIMIDINE DERIVATIVES AND THEIR USE FOR THE TREATMENT OF CANCER” (ASTRAZENECA AB, priority 2007, published 2010).)
